Measurements published in ChEMBL document CHEMBL5096241, “Discovery of 3-Aminopyrazole Derivatives as New Potent and Orally Bioavailable AXL Inhibitors” (J Med Chem, 2022).
Activity calls are given as the source filed them. No cut-off for these calls is given here.

How the values were obtained:
[1] = target: Tyrosine-protein kinase receptor UFO (Homo sapiens) (UniProt P30530); assay: Inhibition of AXL phosphorylation at Tyr702 residue in human MDA-MB-231 cells measured after 6 hrs by Western blot analysis; format: cell-based; conditions: dose 0.8-500 nM, DDE = dose-dependent effect
[2] = target: Mitogen-activated protein kinase kinase kinase kinase 5 (Homo sapiens, UniProt Q9Y4K4); assay: Binding affinity to MAP4K5 (unknown origin) assessed as dissociation constant by competition binding assay
MDA-MB-231 = assay: Inhibition of TGF-beta induced cell migration in human MDA-MB-231 cells assessed as reduction in wound closure at 1 to 3 uM incubated for 24 hrs by bright field microscopy based wound healing assay; format: functional; conditions: dose 1-3 µM
Angiopoietin-1 receptor = Angiopoietin-1 receptor (Homo sapiens, UniProt Q02763); assay: Binding affinity to TIE2 (unknown origin) assessed as dissociation constant by competition binding assay
[3] = Tmax in Sprague-Dawley rat at 25 mg/kg, po measured for 96 hrs by LC-MS analysis; format: ADME, organism-based; conditions: in vivo
[4] = target: T1, Platelet-derived growth factor receptor beta (Homo sapiens, UniProt P09619); assay: Inhibition of PDGFRB (unknown origin)
4T1 [5] = assay: Antitumor activity against metastatic mouse 4T1 cells implanted in BALB/c mouse assessed as reduction in number of liver metastases at 50 mg/kg, po qd administered for 14 consecutive days by H & E staining based microscopic analysis (reference value: 24.7 +/- 6.7); format: functional; conditions: time 14 day
[6] = Inhibition of TGF-beta induced cell invasion in human MDA-MB-231 cells at 0.11 uM incubated for 24 hrs by crystal violet staining based transwell assay relative to control; format: functional
[7] = Half life in Sprague-Dawley rat at 25 mg/kg, po measured for 96 hrs by LC-MS analysis; format: ADME, organism-based; conditions: in vivo
[8] = Inhibition of TGF-beta induced cell invasion in human MDA-MB-231 cells at 1 uM incubated for 24 hrs by crystal violet staining based transwell assay relative to control; format: functional
[9] = Half life in Sprague-Dawley rat at 5 mg/kg, iv measured for 96 hrs by LC-MS analysis; format: ADME, organism-based; conditions: in vivo
[10] = target: Macrophage-stimulating protein receptor (Homo sapiens, UniProt Q04912); assay: Binding affinity to […] (unknown origin) assessed as dissociation constant by competition binding assay
Ephrin type-B receptor 6 = Ephrin type-B receptor 6 (Homo sapiens, UniProt O15197); assay: Binding affinity to EPHB6 (unknown origin) assessed as dissociation constant by competition binding assay
4T1 [11] = assay: Antitumor activity against metastatic mouse 4T1 cells implanted in BALB/c mouse assessed as reduction in size of liver metastases administered orally once daily for 14 consecutive days by H & E staining based microscopic analysis; format: functional; conditions: dose 50-100 mg/kg, route po, time 14.0 day, DDE = dose-dependent effect
[12] = target: T2, Mast/stem cell growth factor receptor Kit (Homo sapiens, UniProt P10721); assay: Inhibition of KIT (unknown origin)
4T1 [13] = assay: Antitumor activity against metastatic mouse 4T1 cells implanted in BALB/c mouse assessed as inhibition of liver micrometastasis at 50 to 100 mg/kg, po qd administered for 14 consecutive days by H & E staining based microscopic analysis; format: functional, organism-based; conditions: dose 50-100 mg/kg, time 14.0 day
4T1 [14] = assay: Antitumor activity against metastatic mouse 4T1 cells implanted in BALB/c mouse assessed as tumor growth inhibition at 50 mg/kg, po qd administered for 14 consecutive days and measured every 2 days by electronic caliper method relative to control; format: functional; conditions: 4T1, 336 h, time 14 day, read-out: TGI
[15] = Toxicity in BALB/c mouse implanted with mouse 4T1 cells assessed as effect on implantation rate at 50 to 100 mg/kg, po qd administered for 14 consecutive days and measured every 2 days; format: organism-based; conditions: in vivo, 336 h, dose 50-100 mg/kg, time 14 day
[16] = Toxicity in BALB/c mouse implanted with mouse 4T1 cells assessed as body weight loss at 50 to 100 mg/kg, po qd administered for 14 consecutive days and measured every 2 days; format: organism-based; conditions: in vivo, 336 h, dose 50-100 mg/kg, time 14 day
4T1 [17] = assay: Antitumor activity against metastatic mouse 4T1 cells implanted in BALB/c mouse assessed as tumor growth inhibition at 100 mg/kg, po qd administered for 14 consecutive days and measured every 2 days by electronic caliper method relative to control; format: functional; conditions: 4T1, 336 h, time 14 day, read-out: TGI
[18] = target: T3, Tyrosine-protein kinase receptor UFO (Homo sapiens, UniProt P30530); assay: Binding affinity to AXL (unknown origin) assessed as dissociation constant by competition binding assay
T3 sequence (P30530 whole entry): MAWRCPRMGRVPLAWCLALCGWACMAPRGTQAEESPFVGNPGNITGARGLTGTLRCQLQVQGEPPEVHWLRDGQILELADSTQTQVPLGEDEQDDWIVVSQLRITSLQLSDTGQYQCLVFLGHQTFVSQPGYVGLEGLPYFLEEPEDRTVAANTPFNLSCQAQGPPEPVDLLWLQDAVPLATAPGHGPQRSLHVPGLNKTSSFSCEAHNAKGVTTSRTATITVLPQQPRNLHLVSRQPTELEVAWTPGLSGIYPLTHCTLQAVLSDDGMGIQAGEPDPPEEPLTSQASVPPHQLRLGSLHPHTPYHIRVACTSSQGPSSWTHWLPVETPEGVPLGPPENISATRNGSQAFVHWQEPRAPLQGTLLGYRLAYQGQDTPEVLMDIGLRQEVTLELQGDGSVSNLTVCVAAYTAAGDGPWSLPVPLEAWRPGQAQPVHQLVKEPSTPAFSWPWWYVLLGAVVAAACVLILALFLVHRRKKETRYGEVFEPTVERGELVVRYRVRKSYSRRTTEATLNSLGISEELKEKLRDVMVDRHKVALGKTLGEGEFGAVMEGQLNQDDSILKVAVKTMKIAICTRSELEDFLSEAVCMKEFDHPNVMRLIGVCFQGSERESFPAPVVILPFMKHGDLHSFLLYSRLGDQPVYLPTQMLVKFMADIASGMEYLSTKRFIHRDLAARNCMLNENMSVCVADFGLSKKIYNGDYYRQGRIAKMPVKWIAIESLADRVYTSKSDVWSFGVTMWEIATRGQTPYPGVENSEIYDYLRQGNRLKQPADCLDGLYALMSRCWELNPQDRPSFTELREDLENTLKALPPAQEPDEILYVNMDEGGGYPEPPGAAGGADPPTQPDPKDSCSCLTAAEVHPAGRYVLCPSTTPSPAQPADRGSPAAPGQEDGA

[19] = target: Proto-oncogene tyrosine-protein kinase receptor Ret (Homo sapiens, UniProt P07949); assay: Binding affinity to RET (unknown origin) assessed as dissociation constant by competition binding assay
4T1 [20] = assay: Inhibition of ERK phosphorylation in mouse 4T1 cells measured after 6 hrs by Western blot analysis; format: cell-based; conditions: dose 0.8-500 nM, DDE = dose-dependent effect
[21] = target: T4, Receptor-type tyrosine-protein kinase FLT3 (Homo sapiens, UniProt P36888); assay: Inhibition of FLT3 (unknown origin)
[22] = target: T2, Mast/stem cell growth factor receptor Kit; assay: Binding affinity to KIT (unknown origin) assessed as dissociation constant by competition binding assay
[23] = target: T4, Receptor-type tyrosine-protein kinase FLT3; assay: Binding affinity to FLT3 (unknown origin) assessed as dissociation constant by competition binding assay
[24] = target: T1, Platelet-derived growth factor receptor beta; assay: Binding affinity to PDGFRB (unknown origin) assessed as dissociation constant by competition binding assay

T4 sequence (P36888 whole entry): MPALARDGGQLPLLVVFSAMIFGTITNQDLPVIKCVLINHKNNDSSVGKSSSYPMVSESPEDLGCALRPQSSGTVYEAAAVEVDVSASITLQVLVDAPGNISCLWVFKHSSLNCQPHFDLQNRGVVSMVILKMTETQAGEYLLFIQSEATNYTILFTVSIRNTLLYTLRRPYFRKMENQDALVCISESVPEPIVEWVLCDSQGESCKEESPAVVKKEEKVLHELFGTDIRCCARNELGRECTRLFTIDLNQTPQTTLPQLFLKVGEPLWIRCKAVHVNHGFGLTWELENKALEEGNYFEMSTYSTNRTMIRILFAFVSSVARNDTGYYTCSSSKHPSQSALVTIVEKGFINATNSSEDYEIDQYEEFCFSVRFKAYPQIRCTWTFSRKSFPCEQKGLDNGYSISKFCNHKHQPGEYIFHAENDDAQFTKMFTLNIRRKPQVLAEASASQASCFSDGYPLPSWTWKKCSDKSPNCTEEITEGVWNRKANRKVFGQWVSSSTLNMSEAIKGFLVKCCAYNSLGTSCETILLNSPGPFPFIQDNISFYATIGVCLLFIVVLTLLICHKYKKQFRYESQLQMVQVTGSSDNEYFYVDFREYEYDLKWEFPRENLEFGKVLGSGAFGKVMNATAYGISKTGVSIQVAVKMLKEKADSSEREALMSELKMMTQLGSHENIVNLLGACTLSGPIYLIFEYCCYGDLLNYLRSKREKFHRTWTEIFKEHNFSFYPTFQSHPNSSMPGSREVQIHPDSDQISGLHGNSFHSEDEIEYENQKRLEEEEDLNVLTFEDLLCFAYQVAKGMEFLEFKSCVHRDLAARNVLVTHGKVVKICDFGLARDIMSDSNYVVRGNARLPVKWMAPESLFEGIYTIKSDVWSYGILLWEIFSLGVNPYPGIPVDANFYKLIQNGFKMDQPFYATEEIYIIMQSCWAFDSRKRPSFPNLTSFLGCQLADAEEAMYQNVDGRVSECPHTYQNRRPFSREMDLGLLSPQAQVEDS
T1 sequence (P09619 whole entry): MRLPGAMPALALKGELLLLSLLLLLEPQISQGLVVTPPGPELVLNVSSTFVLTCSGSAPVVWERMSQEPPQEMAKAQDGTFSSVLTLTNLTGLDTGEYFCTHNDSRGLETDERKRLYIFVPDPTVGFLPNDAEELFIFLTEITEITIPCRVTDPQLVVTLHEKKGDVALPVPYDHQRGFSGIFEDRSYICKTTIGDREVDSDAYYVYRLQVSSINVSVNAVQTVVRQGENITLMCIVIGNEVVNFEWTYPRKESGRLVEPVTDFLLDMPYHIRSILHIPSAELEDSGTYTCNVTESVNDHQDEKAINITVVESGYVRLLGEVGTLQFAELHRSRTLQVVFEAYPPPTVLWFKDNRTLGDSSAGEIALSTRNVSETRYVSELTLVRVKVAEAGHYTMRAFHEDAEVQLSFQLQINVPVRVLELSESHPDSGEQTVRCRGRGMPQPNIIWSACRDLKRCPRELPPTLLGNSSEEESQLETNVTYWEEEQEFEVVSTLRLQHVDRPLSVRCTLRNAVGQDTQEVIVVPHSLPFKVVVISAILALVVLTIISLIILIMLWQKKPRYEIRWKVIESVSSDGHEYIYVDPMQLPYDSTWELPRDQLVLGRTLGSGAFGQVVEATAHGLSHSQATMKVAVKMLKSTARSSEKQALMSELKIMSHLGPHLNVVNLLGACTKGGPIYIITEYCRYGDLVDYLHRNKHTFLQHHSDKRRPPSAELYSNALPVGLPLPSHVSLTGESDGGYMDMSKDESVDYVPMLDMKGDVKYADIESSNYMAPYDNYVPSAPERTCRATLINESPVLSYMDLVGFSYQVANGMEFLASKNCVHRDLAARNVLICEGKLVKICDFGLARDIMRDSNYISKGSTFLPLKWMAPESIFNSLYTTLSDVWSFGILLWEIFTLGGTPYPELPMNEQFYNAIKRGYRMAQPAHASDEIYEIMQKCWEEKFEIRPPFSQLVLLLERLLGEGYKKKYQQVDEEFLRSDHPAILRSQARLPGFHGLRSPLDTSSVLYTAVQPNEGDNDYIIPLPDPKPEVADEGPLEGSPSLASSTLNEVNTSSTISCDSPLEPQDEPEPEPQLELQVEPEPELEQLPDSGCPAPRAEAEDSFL
T2 sequence (P10721 whole entry): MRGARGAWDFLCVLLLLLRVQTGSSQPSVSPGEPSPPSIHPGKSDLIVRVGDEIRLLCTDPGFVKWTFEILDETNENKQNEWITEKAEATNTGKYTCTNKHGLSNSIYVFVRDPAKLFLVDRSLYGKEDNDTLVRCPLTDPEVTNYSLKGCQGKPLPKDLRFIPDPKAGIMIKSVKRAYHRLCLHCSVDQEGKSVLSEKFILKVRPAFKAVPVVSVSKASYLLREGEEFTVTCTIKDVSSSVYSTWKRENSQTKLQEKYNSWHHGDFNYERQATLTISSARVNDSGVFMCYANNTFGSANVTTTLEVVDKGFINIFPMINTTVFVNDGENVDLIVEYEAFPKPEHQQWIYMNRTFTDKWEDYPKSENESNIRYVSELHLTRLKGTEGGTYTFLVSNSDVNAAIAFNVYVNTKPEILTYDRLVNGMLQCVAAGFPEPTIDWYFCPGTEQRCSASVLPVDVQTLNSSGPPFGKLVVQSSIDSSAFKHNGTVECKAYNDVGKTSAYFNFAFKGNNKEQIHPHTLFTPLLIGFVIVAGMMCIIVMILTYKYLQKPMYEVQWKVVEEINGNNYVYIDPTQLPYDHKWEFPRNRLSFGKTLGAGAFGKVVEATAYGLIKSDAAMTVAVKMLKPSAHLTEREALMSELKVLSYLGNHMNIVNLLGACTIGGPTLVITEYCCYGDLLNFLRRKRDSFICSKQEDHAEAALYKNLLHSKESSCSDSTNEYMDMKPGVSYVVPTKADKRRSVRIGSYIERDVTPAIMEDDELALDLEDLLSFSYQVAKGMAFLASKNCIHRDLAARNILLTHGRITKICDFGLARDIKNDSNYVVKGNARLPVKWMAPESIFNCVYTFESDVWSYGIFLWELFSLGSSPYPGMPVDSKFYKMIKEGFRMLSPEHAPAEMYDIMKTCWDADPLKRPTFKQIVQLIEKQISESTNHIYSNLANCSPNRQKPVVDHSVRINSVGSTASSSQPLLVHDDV
Sequence of Angiopoietin-1 receptor (Q02763 whole entry): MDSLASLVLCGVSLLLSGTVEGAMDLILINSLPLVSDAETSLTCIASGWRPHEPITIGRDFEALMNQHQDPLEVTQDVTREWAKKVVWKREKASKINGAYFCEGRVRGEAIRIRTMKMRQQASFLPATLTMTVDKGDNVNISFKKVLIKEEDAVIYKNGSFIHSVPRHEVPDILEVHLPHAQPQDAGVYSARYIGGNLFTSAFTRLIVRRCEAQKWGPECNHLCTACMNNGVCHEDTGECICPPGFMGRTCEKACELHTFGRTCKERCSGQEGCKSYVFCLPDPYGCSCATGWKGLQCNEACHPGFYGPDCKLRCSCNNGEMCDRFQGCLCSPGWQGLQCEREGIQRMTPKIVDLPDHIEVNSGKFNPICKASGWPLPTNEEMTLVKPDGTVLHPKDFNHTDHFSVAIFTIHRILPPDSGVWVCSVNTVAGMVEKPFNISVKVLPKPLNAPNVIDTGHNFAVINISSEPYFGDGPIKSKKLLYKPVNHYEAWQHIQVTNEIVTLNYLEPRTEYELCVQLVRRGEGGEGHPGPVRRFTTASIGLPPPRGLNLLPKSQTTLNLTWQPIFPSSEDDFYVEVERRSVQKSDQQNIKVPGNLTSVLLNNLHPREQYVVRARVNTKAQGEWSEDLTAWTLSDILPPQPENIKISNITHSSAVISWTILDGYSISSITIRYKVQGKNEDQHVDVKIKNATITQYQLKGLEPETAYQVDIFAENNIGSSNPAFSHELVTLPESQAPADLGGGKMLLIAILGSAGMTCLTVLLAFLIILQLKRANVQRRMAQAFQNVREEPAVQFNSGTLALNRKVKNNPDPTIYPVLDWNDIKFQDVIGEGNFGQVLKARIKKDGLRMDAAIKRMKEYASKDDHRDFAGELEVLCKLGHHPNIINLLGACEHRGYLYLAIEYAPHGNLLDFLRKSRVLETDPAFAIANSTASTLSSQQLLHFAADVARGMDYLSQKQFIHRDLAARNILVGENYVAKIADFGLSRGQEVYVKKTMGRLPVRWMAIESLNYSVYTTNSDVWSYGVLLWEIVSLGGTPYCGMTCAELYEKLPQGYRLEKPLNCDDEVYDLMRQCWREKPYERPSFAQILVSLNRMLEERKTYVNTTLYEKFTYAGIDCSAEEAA
Sequence of Mitogen-activated protein kinase kinase kinase kinase 5 (Q9Y4K4 whole entry): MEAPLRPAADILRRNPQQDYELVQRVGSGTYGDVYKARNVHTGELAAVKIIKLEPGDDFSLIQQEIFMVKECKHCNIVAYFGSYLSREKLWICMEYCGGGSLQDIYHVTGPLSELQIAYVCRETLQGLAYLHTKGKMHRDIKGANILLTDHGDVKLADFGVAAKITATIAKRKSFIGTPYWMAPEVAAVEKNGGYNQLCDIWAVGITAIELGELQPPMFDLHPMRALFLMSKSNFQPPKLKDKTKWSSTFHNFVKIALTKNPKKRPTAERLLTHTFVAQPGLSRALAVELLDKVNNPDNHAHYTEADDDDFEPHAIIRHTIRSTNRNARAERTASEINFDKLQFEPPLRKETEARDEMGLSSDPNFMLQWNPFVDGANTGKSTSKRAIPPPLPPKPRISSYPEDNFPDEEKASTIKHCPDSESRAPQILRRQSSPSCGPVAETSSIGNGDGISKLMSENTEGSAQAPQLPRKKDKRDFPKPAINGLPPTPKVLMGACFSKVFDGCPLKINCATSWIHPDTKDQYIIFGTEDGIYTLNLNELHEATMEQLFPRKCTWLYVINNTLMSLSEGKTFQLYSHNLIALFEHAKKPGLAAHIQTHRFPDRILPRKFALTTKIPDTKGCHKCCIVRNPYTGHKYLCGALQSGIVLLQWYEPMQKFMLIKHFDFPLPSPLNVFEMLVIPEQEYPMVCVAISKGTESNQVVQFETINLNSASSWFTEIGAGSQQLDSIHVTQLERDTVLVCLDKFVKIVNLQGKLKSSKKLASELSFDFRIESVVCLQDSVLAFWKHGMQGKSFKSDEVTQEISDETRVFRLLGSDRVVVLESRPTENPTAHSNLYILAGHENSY

In the case of `COc1cc2c(Oc3ccc(Nc4nn(C)cc4C(=O)NC4CCCCC4)cc3F)ccnc2cc1OCCCN1CCOCC1`, the inhibition [1] is reported as “Dde”, the Kd [2] is reported as over 1000 nM and the inhibition (MDA-MB-231) is reported as “Active”. It also gave a Kd (Angiopoietin-1 receptor) of 950 nM, a Tmax [3] of 3 h and an IC50 [4] of over 10000 nM. The Activity (4T1 [5]) was 3.2, the inhibition at 0.11 µM [6] was 22.6% and the half-life [7] was 4.22 h. For the same compound, the inhibition at 1 µM [8] was 56.5%, the half-life [9] was 3.31 h and the Kd [10] was over 1000 nM. The Kd (Ephrin type-B receptor 6) was over 1000 nM, the Activity (4T1 [11]) was “Dde” and the IC50 [12] was 151 nM. The inhibition (4T1 [13]) was “Active”, the inhibition in vivo at 50 mg/kg (4T1 [14]) was 78% and the Activity [15] was “Non-Toxic”. The Activity [16] was “Non-Toxic”, the inhibition in vivo at 100 mg/kg (4T1 [17]) was 95.9% and the Kd [18] was 0.26 nM. For the same compound, the Kd [19] was 600 nM, the inhibition (4T1 [20]) was “Dde” and the IC50 [21] was 156 nM. It also gave a Kd [22] of 2.6 nM, a Kd [23] of 2.5 nM and a Kd [24] of 2.3 nM.
